Measured values reported in patent publication US10975084B2, “KDM5 inhibitors” (Merck Sharp & Dohme Corp., priority 2016, dated 2021).
pIC50: −log10 of the molar value.

These compounds were tested against KDM5B (Homo sapiens (Human), UniProt Q9UGL1) (assay: KDM5B TR-FRET Enzyme Activity Assay). Details: LANCE TR-FRET; 5 nM full-length recombinant KDM5B; ten point titration 100000 nM to 5.08 nM.
Type: biochemical
In short: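 Full-length KDM5B from Sf21 cells (5 nM) was preincubated 30 min with compound in HEPES pH 7.3 buffer with ascorbate and 2 μM Fe(II). Reaction with 500 nM biotinylated H3K4Me3 peptide and 500 nM α-ketoglutarate ran 60 min. Product was detected by TR-FRET (Eu-anti-H3K4Me1-2/streptavidin-Dylight 650, 665/615 ratio); IC50 came from a 4-parameter fit.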

KDM5B, sequence (Q9UGL1 whole entry): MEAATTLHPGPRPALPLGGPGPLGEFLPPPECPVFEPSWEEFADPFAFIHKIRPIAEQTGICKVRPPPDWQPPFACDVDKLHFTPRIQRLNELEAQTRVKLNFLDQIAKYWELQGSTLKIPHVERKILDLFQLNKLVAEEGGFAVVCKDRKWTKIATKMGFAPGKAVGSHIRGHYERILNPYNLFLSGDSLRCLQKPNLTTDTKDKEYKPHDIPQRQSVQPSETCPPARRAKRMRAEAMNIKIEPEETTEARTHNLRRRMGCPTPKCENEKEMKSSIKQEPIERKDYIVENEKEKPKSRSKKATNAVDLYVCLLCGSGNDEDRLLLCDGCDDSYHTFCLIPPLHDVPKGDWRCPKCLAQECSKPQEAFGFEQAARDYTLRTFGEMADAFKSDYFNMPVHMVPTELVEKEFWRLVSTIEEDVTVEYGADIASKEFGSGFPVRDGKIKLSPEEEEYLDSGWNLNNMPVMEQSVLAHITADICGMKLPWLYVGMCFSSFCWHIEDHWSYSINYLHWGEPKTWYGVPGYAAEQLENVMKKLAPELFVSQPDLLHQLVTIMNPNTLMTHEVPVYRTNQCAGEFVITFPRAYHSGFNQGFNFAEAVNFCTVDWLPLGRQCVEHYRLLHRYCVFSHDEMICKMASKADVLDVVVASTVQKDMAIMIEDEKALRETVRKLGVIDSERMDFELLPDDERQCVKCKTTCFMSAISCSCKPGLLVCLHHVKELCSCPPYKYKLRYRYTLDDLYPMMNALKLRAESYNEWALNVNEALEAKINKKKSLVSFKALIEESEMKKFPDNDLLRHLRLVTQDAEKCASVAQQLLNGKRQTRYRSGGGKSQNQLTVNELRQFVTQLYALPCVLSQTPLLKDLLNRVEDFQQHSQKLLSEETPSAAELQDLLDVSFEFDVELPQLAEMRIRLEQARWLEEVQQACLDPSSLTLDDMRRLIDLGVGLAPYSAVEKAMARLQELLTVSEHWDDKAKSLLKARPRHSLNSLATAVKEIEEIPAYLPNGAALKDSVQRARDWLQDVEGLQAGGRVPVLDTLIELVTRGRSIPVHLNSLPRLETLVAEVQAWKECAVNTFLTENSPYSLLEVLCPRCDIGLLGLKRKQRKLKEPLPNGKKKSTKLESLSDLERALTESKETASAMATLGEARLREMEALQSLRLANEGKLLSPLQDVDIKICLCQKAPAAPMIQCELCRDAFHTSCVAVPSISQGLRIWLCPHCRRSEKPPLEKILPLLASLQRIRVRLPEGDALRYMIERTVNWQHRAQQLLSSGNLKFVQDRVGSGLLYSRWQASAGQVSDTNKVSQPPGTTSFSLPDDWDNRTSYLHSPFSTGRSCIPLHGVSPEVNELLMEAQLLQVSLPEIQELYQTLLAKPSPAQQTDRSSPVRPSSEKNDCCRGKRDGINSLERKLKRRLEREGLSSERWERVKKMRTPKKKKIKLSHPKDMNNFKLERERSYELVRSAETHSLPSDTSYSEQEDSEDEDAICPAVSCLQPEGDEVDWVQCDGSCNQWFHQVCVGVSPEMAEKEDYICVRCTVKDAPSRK

Structure (SMILES)	pIC50
CC(C)c1c(-c2ccc(-c3nccn3C)cc2)[nH]c2ncnn2c1=O [Example 11-90, 6-(1-methylethyl)-5-[4-(1-methyl-1H-imidazol-2-yl)phenyl][1,2,4]triazolo[1,5-a]pyrimidin-7(4H)-one]	8.14
CC(C)c1c(-c2ccnn2Cc2ccccc2)[nH]c2ncnn2c1=O [Example 11-91, 5-(1-benzyl-1H-pyrazol-5-yl)-6-(1-methylethyl)[1,2,4]triazolo[1,5-a]pyrimidin-7(4H)-one]	6.20
COCC(C)(C)n1cc(-c2[nH]c3ncnn3c(=O)c2C(C)C)cn1 [Example 11-92, 5-[1-(2-methoxy-1,1-dimethylethyl)-1H-pyrazol-4-yl]-6-(1-methylethyl)[1,2,4]triazolo[1,5-a]pyrimidin-7(4H)-one]	8.28
CC(C)c1c(-c2ccc(N3CCN(C(C)C)CC3)cc2)[nH]c2ncnn2c1=O [Example 11-93, 6-(1-methylethyl)-5-{4-[4-(1-methylethyl)piperazin-1-yl]phenyl}[1,2,4]triazolo[1,5-a]pyrimidin-7(4H)-one]	7.81
CC(C)c1c(-c2ccc(N3CCCC3)cc2)[nH]c2ncnn2c1=O [Example 11-94, 6-(1-methylethyl)-5-(4-pyrrolidin-1-ylphenyl)[1,2,4]triazolo[1,5-a]pyrimidin-7(4H)-one]	7.70
CC(C)c1c(-c2ccc(-n3ccnn3)cc2)[nH]c2ncnn2c1=O [Example 11-95, 6-(1-methylethyl)-5-[4-(1H-1,2,3-triazol-1-yl)phenyl][1,2,4]triazolo[1,5-a]pyrimidin-7(4H)-one]	8.07
CC(C)c1c(-c2ccc(N3CCS(=O)(=O)CC3)cc2)[nH]c2ncnn2c1=O [Example 11-96, 5-[4-(1,1-dioxidothiomorpholin-4-yl)phenyl]-6-(1-methylethyl)[1,2,4]triazolo[1,5-a]pyrimidin-7(4H)-one]	7.87
CC(C)c1c(-c2ccc(-n3nccn3)cc2)[nH]c2ncnn2c1=O [Example 11-97, 6-(1-methylethyl)-5-[4-(2H-1,2,3-triazol-2-yl)phenyl][1,2,4]triazolo[1,5-a]pyrimidin-7(4H)-one]	7.49
CC(C)c1c(-c2ccc(-n3cccn3)cc2F)[nH]c2ncnn2c1=O [Example 11-98, 5-[2-fluoro-4-(1H-pyrazol-1-yl)phenyl]-6-(1-methylethyl)[1,2,4]triazolo[1,5-a]pyrimidin-7(4H)-one]	6.91
CC(C)c1c(-c2ccc(N)cc2)[nH]c2ncnn2c1=O [Example 11-99, 5-(4-aminophenyl)-6-(1-methylethyl)[1,2,4]triazolo[1,5-a]pyrimidin-7(4H)-one]	7.48
CC(C)c1c(-c2ccc(NS(C)(=O)=O)cc2)[nH]c2ncnn2c1=O [Example 11-100, N-{4-[6-(1-methylethyl)-7-oxo-4,7-dihydro[1,2,4]triazolo[1,5-a]pyrimidin-5-yl]phenyl}methanesulfonamide]	7.70
CC(C)c1c(-c2ccc3c(c2)CCC(=O)N3)[nH]c2ncnn2c1=O [Example 11-101, 6-[6-(1-methylethyl)-7-oxo-4,7-dihydro[1,2,4]triazolo[1,5-a]pyrimidin-5-yl]-3,4-dihydroquinolin-2(1H)-one]	8.12
CC(C)c1c(-c2ccc3c(c2)OCC(=O)N3)[nH]c2ncnn2c1=O [Example 11-102, 7-[6-(1-methylethyl)-7-oxo-4,7-dihydro[1,2,4]triazolo[1,5-a]pyrimidin-5-yl]-2H-1,4-benzoxazin-3(4H)-one]	7.75
CC(C)c1c(-c2ccc(N(C)C)cc2)[nH]c2ncnn2c1=O [Example 11-103, 5-[4-(dimethylamino)phenyl]-6-(1-methylethyl)[1,2,4]triazolo[1,5-a]pyrimidin-7(4H)-one]	7.43
CNc1ccc(-c2[nH]c3ncnn3c(=O)c2C(C)C)cc1 [Example 11-104, 5-[4-(methylamino)phenyl]-6-(1-methylethyl)[1,2,4]triazolo[1,5-a]pyrimidin-7(4H)-one]	7.36
